18 compounds from patent US20190010167A1, “INHIBITORS OF THE MENIN-MLL INTERACTION” (Vitae Pharmaceuticals, Inc., priority 2015, published 2019) can be followed below.

Broadly, the IC50 is the concentration that gives 50% inhibition. A high value points to a need for much substance.

The target of this assay is T1, wild-type menin / MLL-AF9 fusion protein (Homo sapiens, UniProt O00255).
T1 construct: made in house; host or cells: E. coli (menin); HEK293 cleared lysate (MLL-AF9-FLAG)
T1 sequence (O00255 1-610): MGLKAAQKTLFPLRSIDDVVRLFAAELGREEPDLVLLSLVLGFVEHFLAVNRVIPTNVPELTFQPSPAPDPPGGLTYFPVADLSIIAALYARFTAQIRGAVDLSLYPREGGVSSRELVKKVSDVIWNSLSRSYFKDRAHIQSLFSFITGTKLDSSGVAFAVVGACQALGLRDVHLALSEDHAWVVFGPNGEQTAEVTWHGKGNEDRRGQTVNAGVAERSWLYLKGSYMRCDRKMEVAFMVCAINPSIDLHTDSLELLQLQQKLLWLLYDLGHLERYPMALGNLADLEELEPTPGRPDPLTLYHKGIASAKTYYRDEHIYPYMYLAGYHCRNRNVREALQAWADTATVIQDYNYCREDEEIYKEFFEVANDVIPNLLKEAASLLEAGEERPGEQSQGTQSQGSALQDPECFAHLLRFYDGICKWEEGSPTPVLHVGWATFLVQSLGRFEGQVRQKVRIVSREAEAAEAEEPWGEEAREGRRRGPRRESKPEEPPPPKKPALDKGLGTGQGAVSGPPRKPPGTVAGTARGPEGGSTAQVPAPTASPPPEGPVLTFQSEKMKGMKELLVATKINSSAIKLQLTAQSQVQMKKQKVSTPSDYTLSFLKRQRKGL
Kind of assay: AlphaLISA menin/MLL binding assay, wild-type menin (Assay 1). The note with it: biotinylated wild-type menin 5 nM, MLL-AF9-FLAG lysate. On the procedure:
Potencies of inhibitor compounds against menin/MLL binding were assessed by AlphaLISA assay using biotinylated (1) wild-type menin or (2) mutated menin (described in Nature (2012) Vol. 482, pp. 542-548) and MLL-AF9 fusion protein bearing a FLAG epitope at its C-terminus. Menin proteins were expressed in E. coli and covalently modified with biotin using EZ-Link™ Sulfo-NHS-Biotin (ThermoFisher Cat. No. 21217) according to manufacturer's protocol. MLL1-1,396 fused to AF91-92 and the C-terminal FLAG peptide was expressed in HEK293 cells and used as a lysate cleared at 21,000×g for 10 min.
Compounds (2 μL of solutions in DMSO) were dispensed in white 96-well half-area plates (Corning Cat. No. 3693) and incubated for 30 min at RT with 5 nM biotinylated menin and appropriate amount of MLL-AF9-FLAG lysate in 40 μL of 50 mM Tris-HCl buffer pH 7.4 containing 5% (v/v) DMSO, 50 mM NaCl, 0.01% (w/v) bovine serum albumin (BSA) and 1 mM DTT. To this incubation mixture, 40 μl of AlphaLISA anti-FLAG acceptor (PerkinElmer Cat. No. AL112C) and streptavidin donor (PerkinElmer Cat. No. 6760002) beads (10 μg/mL each) was added and incubation continued at RT for 60 min. Alpha (amplified luminescent proximity homogeneous assay) signal was measured on an Envision multi-label plate reader at the end of the incubation. All steps were conducted under dim fluorescent light.
These percent inhibition values were regressed against compound concentrations in the assay using four parameter logit non-linear curve fitting (XLFit, IDBS). The IC50 values were derived from the curve fitting as inflection points on the dose-response curves and are set out in Table 1 below.
Consider `CC(C)CN1CC2(CCN(c3ncnc4ccc(CC(F)(F)F)cc34)CC2)C1` [Example 89, 4-(2-isobutyl-2,7-diazaspiro[3.5]nonan-7-yl)-6-(2,2,2-trifluoroethyl) quinazoline], for which the IC50 was not below 1000 nM.

`FC(F)(F)Cc1ccc2ncnc(N3CC4(CN(CC5CCOCC5)C4)C3)c2c1` [Example 91, 4-(6-((tetrahydro-2H-pyran-4-yl)methyl)-2,6-diazaspiro[3.3]heptan-2-yl)-6-(2,2,2-trifluoroethyl)quinazoline] had a half-inhibitory concentration (IC50) not below 1000 nM.

On to `CCC(C)CN1CCC2(C1)CN(c1ncnc3sc(CC(F)(F)F)cc13)C2` (stereo not drawn) [Example 94, 4-(6-(2-methylbutyl)-2,6-diazaspiro[3.4]octan-2-yl)-6-(2,2,2-trifluoroethyl)thieno[2,3-d]pyrimidine], for which the IC50 fell in the range of 100 to 1000 nM.

Compound `FC(F)(F)Cc1cc2c(N3CC4(CCN(Cc5ccccc5)C4)C3)ncnc2s1` [Example 95, 4-(6-benzyl-2,6-diazaspiro[3.4]octan-2-yl)-6-(2,2,2-trifluoroethyl)thieno[2,3-d]pyrimidine] registered an IC50 not below 1000 nM.

`CCC(C)CN1CCC2(CC1)CN(c1ncnc3sc(CC(F)(F)F)cc13)C2` (stereo not drawn) [Example 100, 4-(7-(2-methylbutyl)-2,7-diazaspiro[3.5]nonan-2-yl)-6-(2,2,2-trifluoroethyl)thieno[2,3-d]pyrimidine] registered an IC50 of 100 to 1000 nM.

On to `CC(C)CN1CCC2(CC1)CN(c1ncnc3sc(CC(F)(F)F)cc13)C2` [Example 101, 4-(7-isobutyl-2,7-diazaspiro[3.5]nonan-2-yl)-6-(2,2,2-trifluoroethyl)thieno[2,3-d]pyrimidine], for which the IC50 lay within 100 to 1000 nM.

On to `FC(F)(F)Cc1cc2c(N3CC4(CCN(C[C@H]5CC[C@H](C(F)(F)F)CC5)CC4)C3)ncnc2s1` [Example 102, 6-(2,2,2-trifluoroethyl)-4-(7-(((1r,4r)-4-(trifluoromethyl)cyclohexyl)methyl)-2,7-diazaspiro[3.5]nonan-2-yl)thieno[2,3-d]pyrimidine], for which the 50% inhibitory concentration (IC50) fell in the range of 100 to 1000 nM.

As for `CC(=O)Nc1ccc(CN2CCC3(CC2)CN(c2ncnc4sc(CC(F)(F)F)cc24)C3)cc1` [Example 103, N-(4-((2-(6-(2,2,2-trifluoroethyl)thieno[2,3-d]pyrimidin-4-yl)-2,7-diazaspiro[3.5]nonan-7-yl)methyl)phenyl)acetamide], the half-inhibitory concentration (IC50) was 100 to 1000 nM.

The compound `O=S1(=O)CCC(N2CCC3(CC2)CN(c2ncnc4sc(CC(F)(F)F)cc24)C3)CC1` [Example 104, 4-(2-(6-(2,2,2-trifluoroethyl)thieno[2,3-d]pyrimidin-4-yl)-2,7-diazaspiro[3.5]nonan-7-yl)tetrahydro-2H-thiopyran 1,1-dioxide] yielded an IC50 of 100 to 1000 nM.

The compound `CC(=O)N[C@H]1CC[C@H](CN2CCC3(CC2)CN(c2ncnc4sc(CC(F)(F)F)cc24)C3)CC1` [Example 105, N-((1r,4r)-4-((2-(6-(2,2,2-trifluoroethyl)thieno[2,3-d]pyrimidin-4-yl)-2,7-diazaspiro[3.5]nonan-7-yl)methyl)cyclohexyl)acetamide] registered a concentration for half-maximal inhibition (IC50) of 100 to 1000 nM.

The compound `FC(F)(F)Cc1cc2c(N3CCC4(CN(Cc5ccccc5)C4)C3)ncnc2s1` [Example 111, 4-(2-benzyl-2,6-diazaspiro[3.4]octan-6-yl)-6-(2,2,2-trifluoroethyl)thieno[2,3-d]pyrimidine] had a half-maximal inhibitory concentration (IC50) of 100 to 1000 nM.

In turn, `Cc1c(CN2CC3(CCN(c4ncnc5sc(CC(F)(F)F)cc45)C3)C2)ccc2[nH]c(C#N)cc12` [Example 112, 4-methyl-5-((6-(6-(2,2,2-trifluoroethyl)thieno[2,3-d]pyrimidin-4-yl)-2,6-diazaspiro[3.4]octan-2-yl)methyl)-1H-indole-2-carbonitrile] returned an IC50 of 100 to 1000 nM.

As to `CC(C)CN1CCC2(CC1)CCN(c1ncnc3sc(CC(F)(F)F)cc13)C2` [Example 113, 4-(8-isobutyl-2,8-diazaspiro[4.5]decan-2-yl)-6-(2,2,2-trifluoroethyl)thieno[2,3-d]pyrimidine], the IC50 is 100 to 1000 nM.

Regarding `CCC(C)CN1CCC2(CC1)CCN(c1ncnc3sc(CC(F)(F)F)cc13)C2` (stereo not drawn) [Example 114, 4-(8-(2-methylbutyl)-2,8-diazaspiro[4.5]decan-2-yl)-6-(2,2,2-trifluoroethyl)thieno[2,3-d]pyrimidine], the IC50 fell in the range of 100 to 1000 nM.

For `FC(F)(F)Cc1cc2c(N3CCC4(CCN(CC5CCOCC5)CC4)C3)ncnc2s1` [Example 115, 4-(8-((tetrahydro-2H-pyran-4-yl)methyl)-2,8-diazaspiro[4.5]decan-2-yl)-6-(2,2,2-trifluoroethyl)thieno[2,3-d]pyrimidine], the half-inhibitory concentration (IC50) was 100 to 1000 nM.

Regarding `FC(F)(F)Cc1cc2c(N3CCC4(CCN(Cc5ccccc5)CC4)C3)ncnc2s1` [Example 116, 4-(8-benzyl-2,8-diazaspiro[4.5]decan-2-yl)-6-(2,2,2-trifluoroethyl)thieno[2,3-d]pyrimidine], the IC50 was not below 1000 nM.

`Cc1c(CN2CCC3(CC2)CCN(c2ncnc4sc(CC(F)(F)F)cc24)C3)ccc2[nH]c(C#N)cc12` [Example 117, 4-methyl-5-((2-(6-(2,2,2-trifluoroethyl)thieno[2,3-d]pyrimidin-4-yl)-2,8-diazaspiro[4.5]decan-8-yl)methyl)-1H-indole-2-carbonitrile]: the IC50 was not below 1000 nM.

With `O=C1CC2(CCN(Cc3ccc4[nH]c(=O)[nH]c4c3)C2)CN1c1ncnc2sc(CC(F)(F)F)cc12` (stereo not drawn) [Example 118, 7-((2-oxo-2,3-dihydro-1H-benzoldlimidazol-5-yl)methyl)-2-(6-(2,2,2-trifluoroethyl)thieno[2,3-d]pyrimidin-4-yl)-2,7-diazaspiro[4.4]nonan-3-one], the IC50 was in the range of 100 to 1000 nM.
